Patent US20060275170A1, “Method for terminal sterilization of transdermal delivery devices” (priority 2005, published 2006)
“Also recorded” adds a separate entry of the source.

Assays:
Format in all cases: physicochemical
[1] = Example 1: purity and degradation products of hPTH(1-34) coated microprojection arrays after gamma or e-beam irradiation (RP-HPLC and SEC-HPLC)
Method: Validation reverse-phase and size-exclusion high pressure liquid chromatography (RP-HPLC and SEC-HPLC, respectively) were used to quantify PTH oxidation resulting from exposure to the sterilizing radiation. Formulations of hPTH(1-34) were prepared, comprising 20% w/w HPTH, 20% sucrose, 0.2% polysorbate 20 and 0.03% EDTA. The PTH formulations were coated onto microprojection arrays, which were then enclosed in glass vials. The coated arrays were irradiated with 7, 14 or 21 kGy radiation doses, from either gamma radiation or e-beam, under dry ice or an ambient temperature. […] Tables 1 and 2 give the data corresponding to the purity and degradation products for gamma radiation and e-beam, respectively.

[2] = Example 2: purity and oxidation of coated hPTH after gamma irradiation or ethylene oxide sterilization; packaging and antioxidants varied (RP-HPLC, SEC-HPLC); details: for degradation: glass vial
Method: Formulations of hPTH(1-34) were prepared as set forth in Example 1, and coated on microprojection arrays. In addition to the standard 1:1 sucrose:hPTH formulations discussed above, the effect of antioxidants was assessed by adding to selected samples 5% w/w methionine or 3.3% w/w ascorbic acid. The coated arrays were placed in nitrogen purged heat-sealed foil pouches or glass vials. Also, one of the samples was subjected to ethylene oxide sterilization as a comparison. The remaining samples were subjected to dose of gamma radiation of either 7, 14 or 21 kGy under dry ice or an ambient temperature. As discussed above, the purity and degradation of the PTH formulations was assessed using RP-HPLC and SEC-HPLC.

[3] = Example 3: purity and oxidation of coated hPTH(1-34) after gamma irradiation; packaging, purge gas and temperature varied (RP-HPLC, SEC-HPLC)
Method: Formulations of hPTH(1-34) were prepared as set forth in Example 1, and coated on microprojection arrays. Certain arrays were assembled with a polycarbonate retainer ring and an adhesive. The arrays were sealed in foil pouches purged with nitrogen or ambient air or in glass vials. The arrays were exposed to 14 or 21 kGy of gamma radiation under dry ice or an ambient temperature. As discussed above, the purity and degradation of the PTH formulations was assessed using RP-HPLC and SEC-HPLC.

[4] = Example 4: purity of coated hPTH(1-34) after 15 kGy gamma or e-beam; desiccant, temperature and sucrose content varied (RP-HPLC, SEC-HPLC)
Method: In this example, formulations of hPTH(1-34) were prepared, comprising 20% w/w HPTH, 20% sucrose or 40% sucrose, 0.2% polysorbate 20 and 0.03% EDTA. The arrays were assembled with a polycarbonate retainer ring and an adhesive. The arrays were sealed in foil pouches purged with nitrogen. Certain samples included a 4 Å molecular seive desiccant. The arrays were exposed to 15 kGy of gamma or e-beam radiation at under dry ice, 2-8° C. or an ambient temperature. As discussed above, the purity and degradation of the PTH formulations was assessed using RP-HPLC and SEC-HPLC.

SMILES: CC[C@H](C)[C@H](NC(=O)[C@H](CCC(=O)O)NC(=O)[C@H](CO)NC(=O)[C@@H](NC(=O)[C@@H](N)CO)C(C)C)C(=O)N[C@@H](CCC(N)=O)C(=O)N[C@@H](CC(C)C)C(=O)N[C@@H](CCSC)C(=O)N[C@@H](Cc1cnc[nH]1)C(=O)N[C@@H](CC(N)=O)C(=O)N[C@@H](CC(C)C)C(=O)NCC(=O)N[C@@H](CCCCN)C(=O)N[C@@H](Cc1cnc[nH]1)C(=O)N[C@@H](CC(C)C)C(=O)N[C@@H](CC(N)=O)C(=O)N[C@@H](CO)C(=O)N[C@@H](CCSC)C(=O)N[C@@H](CCC(=O)O)C(=O)N[C@@H](CCCN=C(N)N)C(=O)N[C@H](C(=O)N[C@@H](CCC(=O)O)C(=O)N[C@@H](Cc1c[nH]c2ccccc12)C(=O)N[C@@H](CC(C)C)C(=O)N[C@@H](CCCN=C(N)N)C(=O)N[C@@H](CCCCN)C(=O)N[C@@H](CCCCN)C(=O)N[C@@H](CC(C)C)C(=O)N[C@@H](CCC(N)=O)C(=O)N[C@@H](CC(=O)O)C(=O)N[C@H](C(=O)N[C@@H](Cc1cnc[nH]1)C(=O)N[C@@H](CC(N)=O)C(=O)N[C@@H](Cc1ccccc1)C(=O)O)C(C)C)C(C)C [hPTH(1-34)]
- loss of purity ([1]; 7 kGy under dry ice, compared with other doses and temperatures): least loss of purity
- degradation (oxidation) ([1]; 21 kGY dose, particularly at an ambient temperature): less degradation
- aggregation following irradiation ([1]; FIG. 6, gamma and e-beam, 7-21 kGy): relatively low
- degradation, e-beam sterilization less than gamma radiation ([1]; at the high radiation doses): 5-10%
- purity of PTH relative to a control formulation ([1]; gamma radiation and e-beam exposure, FIG. 5): decreased
- deamidated products ([1]; irradiated formulations versus control formulation): comparable to the control formulation
- deamidation and aggregation degradation products ([2]; FIG. 8): not prominent
- degradation ([2]; ethylene oxide sterilization): considerable degradation; also recorded: severe
- morphology ([2]; ethylene oxide sterilized sample): altered substantially
- degradation ([2]; gamma 21 kGy, ambient temperature, FIG. 8): severe
- oxidation ([2]; gamma irradiated samples packaged in nitrogen purged foil pouches): minimal oxidation
- purity of hPTH ([2]; gamma radiation, samples other than 21 kGy glass vial ambient (foil pouch, dry ice, 7 or 14 kGy), FIG. 7): comparable to that of the controls
- stability following irradiation ([3]; arrays with polycarbonate retainer ring and acrylate adhesive, nitrogen purged foil pouch, 14 and 21 kGy, dry ice, FIG. 12): adequate stability
- oxidation ([3]; gamma 14 kGy, foil pouch sealed with ambient air, dry ice and ambient temperature, FIG. 11): major oxidation
- purity ([3]; gamma 14 kGy, nitrogen purged foil pouch, dry ice and ambient temperature, FIG. 11): comparable to the controls
- increase in oxidation ([3]; gamma 21 kGy, ambient temperature, nitrogen purged foil pouch, FIG. 10): approximately 2%
- oxidation ([3]; gamma 21 kGy, ambient temperature, nitrogen purged glass vial, FIG. 10): approximately 40%
- increase in overall oxidation ([3]; gamma 21 kGy, nitrogen purged foil pouch, ambient temperature): less than 4%
- increase in overall oxidation ([3]; gamma 21 kGy, nitrogen purged foil pouch, dry ice): less than 2%
- loss in purity relative to the control ([3]; gamma 21 kGy, nitrogen purged foil pouch, FIG. 9): did not suffer a significant loss in purity
- impact of amount of sucrose on stability during irradiation ([4]; 1:1 versus 2:1 sucrose:hPTH, gamma or e-beam, FIG. 15): did not have a significant impact
- degradation, e-beam sterilization versus gamma irradiation ([4]; 15 kGy, same temperature, FIG. 13): less degradation
- degradation ([4]; sample without a desiccant, 15 kGy, FIG. 13): most degradation
